This passage reports IC50 and EC50 results from patent US20240391931A1 (Bristol-Myers Squibb Company, priority 2021, published 2024).

Broadly, the IC50 is the concentration at which inhibition is half-maximal. Broadly, the EC50 is the concentration at which the effect is half-maximal. Read a high EC50 as a less potent agent.

One experiment addresses T1, EGFR WT (Homo sapiens, UniProt P00533).
T1 construct: purchased Thermo Fisher, Carlsbad, CA ERBB1 PR7295B
The experiment in a line: Enzymatic assay EGFR WT (method c). The class given is biochemical. Particulars: [EGFR WT]=2 nM, [ATP]=1 mM, [Peptide 22]=1 μM. An outline of the steps:
(§1)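 Initial rates over 0–3600 s, read as substrate-to-product conversion by capillary electrophoresis, were converted to percent inhibition and fitted with a variable-slope curve to give IC50. Conditions: EGFR WT 2 nM with 1 mM ATP; HER2 YVMA 5 nM or HER2 WT 12.5 nM, each with 25 μM ATP. All used 1 μM Peptide 22 in pH 7.5 HEPES/Mn/Mg buffer.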

For the next experiment, the target named is T2, HER2 WT (Homo sapiens, UniProt P04626).
T2 construct: purchased ProQinase, Freiburg, Germany ERBB2 0108-0000-1
The experiment in a line: Enzymatic assay HER2 WT (method a). The settings on record: [HER2 WT]=12.5 nM, [ATP]=25 μM, [Peptide 22]=1 μM. Type of experiment: biochemical. An outline of the steps:
as §1

Experiment [1] deals with T3, HER2 wildtype (WT) protein (Homo sapiens, UniProt P04626).
T3 construct: BT474 and N87 cell lines which endogenously overexpress the HER2 wildtype (WT) protein; endogenous in cells; host or cells: BT474, N87
The experiment can be described thus: HER2 signaling (pHER2 Tyr1248/total HER2 MSD) in BT474 cells. Type of experiment: cell-based. Particulars: 1.5 hr compound, 1% FBS. An outline of the steps:
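BT474, N87 (HER2 WT) and NCI-H1781 (HER2 G776delinsVC) cells were treated for 1.5 h at 37° C in 1% FBS medium with compound at 0.0005–1.1 μM. pHER2 Tyr1248 was measured by MSD on whole-cell lysates and normalized to total HER2 as % DMSO. EC50 came from a variable-slope sigmoidal fit.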

Another experiment addresses HER2YVMA (Homo sapiens, UniProt P04626, INS775YVMA). The experiment in a line: Enzymatic assay HER2YVMA (method b). Type of experiment: biochemical. Also noted: purchased Viva biotech, Shanghai, China custom purification. The settings on record: [HER2YVMA]=5 nM, [ATP]=25 μM, [Peptide 22]=1 μM. In a few lines:
as §1

Molecules are shown by their SMILES.

HER2YVMA, sequence (P04626 with tags, fused parts or gaps INS775YVMA): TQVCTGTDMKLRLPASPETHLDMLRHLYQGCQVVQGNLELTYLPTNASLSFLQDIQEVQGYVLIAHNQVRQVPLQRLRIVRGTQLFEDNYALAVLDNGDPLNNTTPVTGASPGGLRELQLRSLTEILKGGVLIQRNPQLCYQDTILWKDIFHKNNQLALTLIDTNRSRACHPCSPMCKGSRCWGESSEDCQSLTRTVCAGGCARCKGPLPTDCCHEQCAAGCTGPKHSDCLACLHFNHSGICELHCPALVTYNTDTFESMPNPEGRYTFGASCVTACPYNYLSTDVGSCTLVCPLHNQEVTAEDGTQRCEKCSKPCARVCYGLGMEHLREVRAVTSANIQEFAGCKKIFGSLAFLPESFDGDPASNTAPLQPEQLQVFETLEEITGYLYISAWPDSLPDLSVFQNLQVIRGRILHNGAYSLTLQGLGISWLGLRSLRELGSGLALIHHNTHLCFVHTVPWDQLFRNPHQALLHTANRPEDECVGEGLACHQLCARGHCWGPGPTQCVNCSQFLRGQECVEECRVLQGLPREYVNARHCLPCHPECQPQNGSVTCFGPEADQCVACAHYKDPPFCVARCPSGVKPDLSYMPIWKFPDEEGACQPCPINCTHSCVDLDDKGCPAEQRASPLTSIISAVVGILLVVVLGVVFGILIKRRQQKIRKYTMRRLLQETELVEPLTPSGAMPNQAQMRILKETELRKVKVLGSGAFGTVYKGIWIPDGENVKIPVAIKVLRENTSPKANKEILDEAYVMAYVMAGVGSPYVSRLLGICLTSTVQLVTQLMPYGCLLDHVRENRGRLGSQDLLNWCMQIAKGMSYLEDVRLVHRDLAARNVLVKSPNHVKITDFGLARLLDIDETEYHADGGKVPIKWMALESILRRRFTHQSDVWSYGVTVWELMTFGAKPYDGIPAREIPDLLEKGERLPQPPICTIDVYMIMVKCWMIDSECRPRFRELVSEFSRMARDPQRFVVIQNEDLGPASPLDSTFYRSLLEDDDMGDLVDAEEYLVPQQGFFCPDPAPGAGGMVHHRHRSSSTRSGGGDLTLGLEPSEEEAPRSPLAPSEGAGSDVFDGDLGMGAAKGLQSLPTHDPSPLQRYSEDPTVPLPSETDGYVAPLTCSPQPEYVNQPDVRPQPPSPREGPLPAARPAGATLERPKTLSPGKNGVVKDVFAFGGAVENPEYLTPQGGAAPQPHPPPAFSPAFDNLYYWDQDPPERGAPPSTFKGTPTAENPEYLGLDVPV
T1 sequence (P00533 25-1210): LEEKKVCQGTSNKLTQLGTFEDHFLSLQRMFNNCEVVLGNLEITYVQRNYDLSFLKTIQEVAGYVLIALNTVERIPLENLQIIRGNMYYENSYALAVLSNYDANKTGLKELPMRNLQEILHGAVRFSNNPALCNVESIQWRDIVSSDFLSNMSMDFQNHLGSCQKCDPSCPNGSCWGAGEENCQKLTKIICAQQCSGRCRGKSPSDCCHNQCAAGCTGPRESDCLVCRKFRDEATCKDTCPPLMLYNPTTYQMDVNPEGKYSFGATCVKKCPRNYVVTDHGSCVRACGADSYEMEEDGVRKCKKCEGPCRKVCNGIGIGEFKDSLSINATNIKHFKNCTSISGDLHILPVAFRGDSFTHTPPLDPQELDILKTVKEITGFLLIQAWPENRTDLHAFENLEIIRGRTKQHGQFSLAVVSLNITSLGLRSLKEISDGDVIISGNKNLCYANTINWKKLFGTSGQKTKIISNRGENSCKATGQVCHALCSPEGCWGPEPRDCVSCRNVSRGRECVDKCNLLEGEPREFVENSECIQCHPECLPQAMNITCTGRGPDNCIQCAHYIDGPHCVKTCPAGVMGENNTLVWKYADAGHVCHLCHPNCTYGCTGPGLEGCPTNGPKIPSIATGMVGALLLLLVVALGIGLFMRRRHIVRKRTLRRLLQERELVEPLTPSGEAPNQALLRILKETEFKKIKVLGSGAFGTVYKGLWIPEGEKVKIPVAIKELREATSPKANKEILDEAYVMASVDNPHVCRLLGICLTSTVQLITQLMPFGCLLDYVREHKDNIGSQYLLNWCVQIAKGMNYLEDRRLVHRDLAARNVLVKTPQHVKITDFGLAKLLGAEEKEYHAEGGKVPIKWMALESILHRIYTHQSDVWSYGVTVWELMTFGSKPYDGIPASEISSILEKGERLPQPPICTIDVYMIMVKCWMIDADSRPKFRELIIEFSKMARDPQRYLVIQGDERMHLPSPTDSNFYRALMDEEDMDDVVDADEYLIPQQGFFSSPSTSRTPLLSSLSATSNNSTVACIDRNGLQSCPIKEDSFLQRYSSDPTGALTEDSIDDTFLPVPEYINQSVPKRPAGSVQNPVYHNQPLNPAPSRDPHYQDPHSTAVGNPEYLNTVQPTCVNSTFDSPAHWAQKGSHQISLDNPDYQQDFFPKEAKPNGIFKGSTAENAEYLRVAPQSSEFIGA
T2 sequence (P04626 23-1255): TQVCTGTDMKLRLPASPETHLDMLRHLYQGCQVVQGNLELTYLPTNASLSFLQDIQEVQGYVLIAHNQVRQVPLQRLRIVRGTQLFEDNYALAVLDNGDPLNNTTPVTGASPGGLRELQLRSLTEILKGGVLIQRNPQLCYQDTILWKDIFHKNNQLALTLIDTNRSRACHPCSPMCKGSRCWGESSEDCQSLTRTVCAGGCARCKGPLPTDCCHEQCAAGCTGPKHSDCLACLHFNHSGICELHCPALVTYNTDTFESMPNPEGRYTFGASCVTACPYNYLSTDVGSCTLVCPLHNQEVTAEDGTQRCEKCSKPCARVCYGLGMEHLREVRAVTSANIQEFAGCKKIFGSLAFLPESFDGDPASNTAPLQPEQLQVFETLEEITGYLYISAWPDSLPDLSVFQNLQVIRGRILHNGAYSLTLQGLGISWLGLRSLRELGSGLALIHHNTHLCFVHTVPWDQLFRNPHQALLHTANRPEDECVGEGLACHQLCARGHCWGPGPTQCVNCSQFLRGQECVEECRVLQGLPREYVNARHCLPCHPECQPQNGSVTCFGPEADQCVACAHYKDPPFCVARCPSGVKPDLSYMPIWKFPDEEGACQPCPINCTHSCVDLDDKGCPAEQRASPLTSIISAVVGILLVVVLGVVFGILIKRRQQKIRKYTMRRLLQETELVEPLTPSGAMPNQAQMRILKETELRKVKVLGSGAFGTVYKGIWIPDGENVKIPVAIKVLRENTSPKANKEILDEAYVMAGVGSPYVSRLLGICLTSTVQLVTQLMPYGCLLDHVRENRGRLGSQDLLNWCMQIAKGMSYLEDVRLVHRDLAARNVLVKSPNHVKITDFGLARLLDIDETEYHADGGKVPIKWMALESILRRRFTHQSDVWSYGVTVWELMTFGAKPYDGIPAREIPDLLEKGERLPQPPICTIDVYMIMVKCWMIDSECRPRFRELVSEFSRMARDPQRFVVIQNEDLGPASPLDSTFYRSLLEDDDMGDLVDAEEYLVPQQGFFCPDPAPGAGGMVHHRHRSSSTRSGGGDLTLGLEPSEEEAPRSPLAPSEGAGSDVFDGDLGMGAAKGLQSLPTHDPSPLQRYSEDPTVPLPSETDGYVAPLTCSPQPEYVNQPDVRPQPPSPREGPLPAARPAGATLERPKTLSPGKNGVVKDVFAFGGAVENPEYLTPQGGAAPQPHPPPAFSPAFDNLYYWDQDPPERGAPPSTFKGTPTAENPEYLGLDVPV
T3 sequence (P04626 23-1255): as above

With `C=CC(=O)N1CCc2c(sc3ncnc(Nc4ccc(Oc5cccnc5)c(Cl)c4)c23)C1` [Compound 6, 1-(4-((3-chloro-4-(pyridin-3-yloxy)phenyl)amino)-5,8-dihydropyrido[4′,3′:4,5]thieno[2,3-d]pyrimidin-7(6H)-yl)prop-2-en-1-one], the IC50 at EGFR WT is above 10000 nM; on HER2 WT it was below 100 nM; at HER2YVMA, below 100 nM. Also, in experiment [1], the EC50 was below 100 nM.
For the compound `Cc1cn2ccc(Oc3ccc(Nc4ncnc5sc6c(c45)CCN(C(=O)/C=C/CN(C)C)C6)cc3C)cc2n1` [Compound 110, (E)-4-(dimethylamino)-1-(4-((3-methyl-4-((2-methylimidazo[1,2-a]pyridin-7-yl)oxy)phenyl)amino)-5,8-dihydropyrido[4′,3′:4,5]thieno[2,3-d]pyrimidin-7(6H)-yl)but-2-en-1-one], the IC50 at EGFR WT is above 10000 nM; at HER2 WT, 100 to 1000 nM; at HER2YVMA, below 100 nM. Moreover, in experiment [1], the EC50 was below 100 nM.
As for `COc1ccc(Oc2ccc(Nc3ncnc4sc5c(c34)CCN(C(=O)/C=C/CN(C)C(C)(C)C)C5)cc2C)cn1` [Compound 163], the half-inhibitory concentration (IC50) at EGFR WT was above 10000 nM; on HER2 WT, below 100 nM; against HER2YVMA, below 100 nM. Besides, in experiment [1], the EC50 is below 100 nM.
In the case of `Cc1ccc(Oc2ccc(Nc3ncnc4sc5c(c34)CCN(C(=O)/C=C/CN3CCC[C@H](CO)C3)C5)cc2C)cn1` [Compound 155], the results for the IC50 at EGFR WT, on HER2 WT and at HER2YVMA were above 10000 nM, below 100 nM and below 100 nM, respectively. In experiment [1], this compound returned a half-maximal effective concentration (EC50) below 100 nM.
For `Cc1cc(Nc2ncnc3sc4c(c23)CCN(C(=O)/C=C/CN(C)C)CC4)ccc1Oc1ccn2ncnc2c1` [Compound 168], the IC50 was above 10000 nM at EGFR WT, below 100 nM on HER2 WT and 100 to 1000 nM at HER2YVMA. Besides, the EC50 in experiment [1] is below 100 nM.
For `C#CCOCCN(C)C/C=C/C(=O)N1CCc2c(sc3ncnc(Nc4ccc(Oc5ccc(C)nc5)c(C)c4)c23)C1` [Compound 139], the results for the IC50 against EGFR WT, against HER2 WT and at HER2YVMA were above 10000 nM, below 100 nM and below 100 nM, respectively. Besides, the EC50 in experiment [1] was below 100 nM.
Turning to `COc1ccc(Oc2ccc(Nc3ncnc4sc5c(c34)C(C)CN(C(=O)C=CCN(C)C)C5)cc2C)cn1` (single isomer, unassigned) [Compound 160], the IC50 on EGFR WT was above 10000 nM; against HER2 WT, below 100 nM; against HER2YVMA it was below 100 nM. In addition, the EC50 in experiment [1] was below 100 nM.
For the compound `Cc1cc(Nc2ncnc3sc4c(c23)CCN(C(=O)/C=C/CN(C)C)C4)ccc1Oc1ccc2nccn2c1` [Compound 109, (E)-4-(dimethylamino)-1-(4-((4-(imidazo[1,2-a]pyridin-6-yloxy)-3-methylphenyl)amino)-5,6-dihydropyrido[4′,3′:4,5]thieno[2,3-d]pyrimidin-7(8H)-yl)but-2-en-1-one], the IC50 on EGFR WT is above 10000 nM; on HER2 WT, 100 to 1000 nM; at HER2YVMA it was below 100 nM. Moreover, the EC50 in experiment [1] was below 100 nM.
As to `Cc1cc(Nc2ncnc3sc4c(c23)CN(C(=O)/C=C/CN(C)C)C4)ccc1Oc1ccc2ncnn2c1` [Compound 111, (E)-1-(4-((4-([1,2,4]Triazolo[1,5-a]pyridin-6-yloxy)-3-methylphenyl)amino)-5H-pyrrolo[3′,4′:4,5]thieno[2,3-d]pyrimidin-6(7H)-yl)-4-(dimethylamino)but-2-en-1-one], the IC50 on EGFR WT was above 10000 nM; on HER2 WT, below 100 nM; at HER2YVMA it was below 100 nM. In experiment [1], the EC50 is below 100 nM.
Turning to `COc1ccc(Oc2ccc(Nc3ncnc4sc5c(c34)CCN(C(=O)/C=C/CN3CCOCC3)C5)cc2C)cn1` [Compound 164], the IC50 against EGFR WT was above 10000 nM; against HER2 WT, 100 to 1000 nM; at HER2YVMA, 100 to 1000 nM. In experiment [1], this compound came in with an EC50 below 100 nM.
As to `CC[C@H](NC/C=C/C(=O)N1CCc2c(sc3ncnc(Nc4ccc(Oc5ccc(C)nc5)c(C)c4)c23)C1)C(F)(F)F` [Compound 122], the IC50 against EGFR WT was above 10000 nM; at HER2 WT it was below 100 nM; against HER2YVMA, below 100 nM. This compound also had an EC50 in experiment [1] below 100 nM.
For the compound `Cc1ccc(Oc2ccc(Nc3ncnc4sc5c(c34)CCN(C(=O)/C=C/CN3CC4(CCCC4)C3)C5)cc2C)cn1` [Compound 123], the IC50 at EGFR WT was above 10000 nM; at HER2 WT, below 100 nM; against HER2YVMA, below 100 nM. In experiment [1], this compound yielded an EC50 below 100 nM.
Turning to `Cc1ccc(Oc2ccc(Nc3ncnc4sc5c(c34)CN(C(=O)/C=C/CN(C)C)C5C)cc2C)cn1` (stereo not drawn) [Compound 153, (E)-4-(dimethylamino)-1-(7-methyl-4-((3-methyl-4-((6-methylpyridin-3-yl)oxy)phenyl)amino)-5,7-dihydro-6H-pyrrolo[3′,4′:4,5]thieno[2,3-d]pyrimidin-6-yl)but-2-en-1-one], the IC50 on EGFR WT was above 10000 nM; against HER2 WT it was 100 to 1000 nM; against HER2YVMA, below 100 nM. The EC50 in experiment [1] was below 100 nM.
As to `Cc1cc(Nc2ncnc3sc4c(c23)CCN(C(=O)/C=C/CN(C)C)C4)ccc1Oc1ccn2ncnc2c1` [Compound 138, (E)-1-(4-((4-([1,2,4]triazolo[1,5-a]pyridin-7-yloxy)-3-methylphenyl)amino)-5,8-dihydropyrido[4′,3′:4,5]thieno[2,3-d]pyrimidin-7(6H)-yl)-4-(dimethylamino)but-2-en-1-one], the IC50 on EGFR WT is above 10000 nM; against HER2 WT, below 100 nM; against HER2YVMA, below 100 nM. The same compound showed an EC50 in experiment [1] below 100 nM.
Take `C=CC(=O)N1Cc2sc3ncnc(Nc4ccc(Oc5ccc(C)nc5)c(C)c4)c3c2C(C)C1` (stereo not drawn) [Compound 142, 1-(5-methyl-4-((3-methyl-4-((6-methylpyridin-3-yl)oxy)phenyl)amino)-5,6-dihydropyrido[4′,3′:4,5]thieno[2,3-d]pyrimidin-7(8H)-yl)prop-2-en-1-one]: the IC50 against EGFR WT was 1000 to 10000 nM; on HER2 WT it was below 100 nM; at HER2YVMA, below 100 nM. In experiment [1], the EC50 was below 100 nM.
For the compound `COc1ccc(Oc2ccc(Nc3ncnc4sc5c(c34)C(C)CN(C(=O)C=CCN(C)C)C5)cc2C)cn1` (single isomer, unassigned) [Compound 159], the IC50 at EGFR WT is above 10000 nM; against HER2 WT it was 100 to 1000 nM; at HER2YVMA, 100 to 1000 nM. Also, the half-maximal effective concentration (EC50) in experiment [1] is below 100 nM.
Turning to `Cc1ccc(Oc2ccc(Nc3ncnc4sc5c(c34)C(C)CN(C(=O)/C=C/CN(C)C)C5)cc2Cl)cn1` (stereo not drawn) [Compound 171, (E)-1-(4-((3-Chloro-4-((6-methylpyridin-3-yl)oxy)phenyl)amino)-5-methyl-5,6-dihydropyrido[4′,3′:4,5]thieno[2,3-d]pyrimidin-7(8H)-yl)-4-(dimethylamino)but-2-en-1-one], the results for the half-inhibitory concentration (IC50) against EGFR WT, against HER2 WT and against HER2YVMA were above 10000 nM, below 100 nM and below 100 nM, respectively. Moreover, the EC50 in experiment [1] is below 100 nM.
Consider `COc1ccc(Oc2ccc(Nc3ncnc4sc5c(c34)CCN(C(=O)/C=C/CN(C)C)CC5)cc2C)cn1` [Compound 173, (E)-4-(Dimethylamino)-1-(4-((4-((6-methoxypyridin-3-yl)oxy)-3-methylphenyl)amino)-8,9-dihydro-5H-pyrimido[5′,4′:4,5]thieno[2,3-d]azepin-7(6H)-yl)but-2-en-1-one], for which the IC50 against EGFR WT was above 10000 nM; against HER2 WT, 100 to 1000 nM; against HER2YVMA, 100 to 1000 nM. The compound also showed an EC50 in experiment [1] below 100 nM.
